Experiment: Particle size analysis (wet analysis), Malvern Mastersizer 3000 Hydro MV
Assay type: physicochemical
Settings: unmicronised / as supplied, wet analysis method
Procedure: […] The pump speed was set to 3000 rpm. […] The dispersed particles were added to the dispersion unit to reach an obscuration of 5-15%. The optical properties used included a refractive index of 1.52 and an absorption value of 1.0 for the glycopyrrolate, and a refractive index of 1.45 and an absorption value of 1.0 for the magnesium stearate and a refractive index of 1.391 for the iso-octane. Six replicates were performed per measurement.

## C[N+]1(C)CCC(OC(=O)C(O)(c2ccccc2)C2CCCC2)C1 (stereo not drawn) [Unmicronised glycopyrrolate, glycopyrrolate]
  D10 particle size of source powder: 20.6 μm
  D50 particle size of source powder: 148.7 μm
  D90 particle size of source powder: 409.7 μm

## magnesium stearate
  D10 particle size of source powder: 2.8 μm
  D50 particle size of source powder: 8.8 μm
  D90 particle size of source powder: 27.4 μm

Source: patent US11759791B2, “Jet milling method” (VECTURA LIMITED, priority 2015, dated 2023)
